Measured values: US20030216569A1, “Method of making HIV protease inhibitors” (priority 1993, published 2003)

Biological target: HIV-1 protease (Human immunodeficiency virus type 1 group M subtype B, UniProt P04585)
Assay: Fluorescence HIV-1 Protease Inhibitor Assay (Pandex)
Format: biochemical
Parameters: made in house; host or cells: E. coli K12 L507/pHP10D (NRRL B-18560)
Details: normalized to positive control (=1.0); * = a calculated average
Description: A. Preparation of Protease and Gag Fractions
Lyophils of E. coli K12 L507/pHP10D were obtained from the Northern Regional Research Laboratory, Peoria, Ill. 61604, under the accession number NRRL B-18560 (deposited Nov. 14, 1989). The lyophils were decanted into tubes containing 10 ml LB medium (10 g Bacto-tryptone, 5 g Bacto-yeast extract, and 10 g aqueous sodium chloride per liter; the pH was adjusted to 7.5 and incubated at 32° C. overnight).
A small portion of the overnight culture was placed on LB-agar (LB medium with 15 g/L Bacto-agar) plates containing 12.5 micrograms/ml tetracycline in a manner so as to obtain a single colony isolate of E. coli K12 L507/pHP10D. The single colony obtained was inoculated into 10 ml of LB medium containing 12.5 micrograms/ml tetracycline and incubated overnight at 32° C. with vigorous shaking. The 10 ml overnight culture was inoculated into LB medium containing 12.5 micrograms/ml tetracycline and incubated at 32° C. with vigorous shaking until the culture reached mid-log phase. […]
3. Preparation of Protease Fraction
A culture of E. coli K12 L507/pHP10D was grown to mid-log phase at 32° C. in LB media containing 12.5 micrograms/ml tetracycline. The cultivation temperature was quickly elevated to 40° C. to induce gene expression, and the cells were allowed to grow for 2.5 hours at this temperature before the culture was quickly chilled on ice. The cells were centrifuged and the cell pellet was resuspended in 20 ml of 50 mmol MES buffer (pH 6.0) containing 1 mmol EDTA, 1 mmol DTT, 1 mmol PMSF and 10% glycerol (“Buffer A”). Cells were lysed by sonication using a Fischer Model 300 Dismembrator and a microtip probe. Following centrifugation at 27,000×g, the supernatant was diluted to a total volume of 60 ml with Buffer A and loaded onto a 2.0×19 cm QAE-Sepharose column (1 ml/min, 4° C.), that had been equilibrated in Buffer A. The column was washed isocratically for 180 min and then eluted with a gradient eluent of […] aqueous sodium chloride in Buffer A over 120 min. Enzymatic activity was measured by HPLC using the synthetic peptide Ser-Gln-Asn-Tyr-Pro-Ile-Val as described in Margolin et al., Biochem. Biophys. Res. Commun., 167, 554-560 (1990); the production of the p1 peptide (Ser-Gln-Asn-Tyr) was measured.
The active fractions were combined, adjusted to […] 1.2M in ammonium sulfate, and applied to a 2.0×18 cm hexyl agarose column that had been equilibrated in Buffer A containing 1.2M ammonium sulfate. The sample was loaded at a flow rate of 1 ml/min at 4° C., washed with the equilibration buffer for 240 min (1 ml/min) and then eluted using a reverse linear gradient of 1.2-0M ammonium sulfate in Buffer A for 120 min at the same flow rate. The column was then washed isocratically in Buffer A for 120 min.
The active fractions were combined, concentrated to 10 ml using an Amicon stirred cell with a YM-10 membrane and then applied to a MonoS cation exchange column (1.0×10 cm) that had been equilibrated in Buffer A. The sample was loaded at a flow rate of 1 ml/min at 25° C. After washing isocratically for 30 min, the protease was eluted using a linear gradient of 0-0.45M aqueous sodium chloride in Buffer A over 40 min. The column was washed isocratically in Buffer A containing 0.45M aqueous sodium chloride for 30 minutes.
The active fractions were combined and concentrated to 200 microliters using an Amicon stirred cell and a YM-10 membrane and then the protease was applied to a Superose 6 size exclusion column equilibrated in Buffer A containing 0.1M aqueous sodium chloride.

Structure (SMILES)	Fluorescence Assay IC50 in ng/mL	Fluorescence Assay IC50
Cc1c(O)cccc1C(=O)N[C@@H](Cc1ccccc1)[C@H](O)CN1CCC[C@H]1C(=O)NC(C)(C)C (relative stereo) [Example 4, [2S-(2R*,2′S*,3′R*)]-1-[2′-Hydroxy-3′-phenylmethyl-4′-aza-5′-oxo-5′-(2″-methyl-3″-hydroxyphenyl)pentyl] pyrrolidine-2-N-t-butylcarboxamide]	1425* ng/mL	
Cc1c(O)cccc1C(=O)N[C@@H](Cc1ccccc1)[C@H](O)CN1CCCC[C@H]1C(=O)NC(C)(C)C (relative stereo) [Example 6, [2S-(2R*,2′S*,3′R*)]-1-[2′-Hydroxy-3′-phenylmethyl-4′-aza-5′-oxo-5′-(2″methyl-3″-hydroxyphenyl)pentyl]piperidine-2-N-t-butylcarboxamide]	513* ng/mL	
Cc1c(C(=O)N[C@@H](Cc2ccccc2)[C@H](O)CN2C[C@H]3CCCC[C@H]3C[C@H]2C(=O)NC(C)(C)C)cc[nH]c1=O (relative stereo) [Example 16, [3S-(3R*,4aR*,8aR*,2′S*,3′R*)]-2-[2′-Hydroxy-3′-phenylmethyl-4′-aza-5′-oxo-5′-(2″-oxo-3″-methyl-pyrid-4″-yl)pentyl] decahydroisoquinoline-3-N-t-butylcarboxamide]		0.329 µg/mL
Cc1ccc(CO)cc1C(=O)N[C@@H](Cc1ccccc1)[C@H](O)Cc1ccccc1C(=O)NC(C)(C)C (relative stereo) [Example 41, [2′R-(2′R*,3′S*)]-N-t-Butyl-2-[2′-hydroxy-3′-phenylmethyl-4′-aza-5′-oxo-5′-(2″methyl-5″-hydroxymethylphenyl)pentyl] benzamide]		0.006 µg/mL
CNc1cccc(C(=O)N[C@H](CSc2ccc3ccccc3c2)[C@H](O)Cc2ccccc2C(=O)NC(C)(C)C)c1C (relative stereo) [Example 43, [2′R-(2′R*,3′S*)]-N-t-Butyl-2-[2′-hydroxy-3′-naphth-2-ylthiomethyl-4′-aza-5′-oxo-5′-(2″-methyl-3″N(methyl)aminophenyl)pentyl] benzamide]		0.54 µg/mL
Cc1c(O)cccc1C(=O)N[C@H](CSc1ccc2ccccc2c1)[C@H](O)Cc1ccccc1C(=O)NC(C)(C)C (relative stereo) [Example 46, [2′R-(2′R*,3′S*)]-N-t-Butyl-2-[2′-hydroxy-3′-naphth-2-ylthiomethyl-4′-aza-5′-oxo-5′-(2″-methyl-3″-hydroxyphenyl)pentyl] benzamide]		0.063 µg/mL
Cc1ccc(N)cc1C(=O)N[C@H](CSc1ccc2ccccc2c1)[C@H](O)Cc1ccccc1C(=O)NC(C)(C)C (relative stereo) [Example 47, [2′R-(2′R*,3′S*)]-N-t-Butyl-2-[2′-hydroxy-3′-naphth-2-ylthiomethyl-4′-aza-5′-oxo-5′-(2″-methyl-5″-aminophenyl)pentyl] benzamide]		0.091 µg/mL
Cc1c(O)cccc1C(=O)N[C@H](CSc1ccc2ccccc2c1)[C@H](O)Cc1ccc2ccccc2c1C(=O)NC(C)(C)C (relative stereo) [Example 48, [2′R-(2′R*,3′S*)]-N-t-Butyl-2-[2′-hydroxy-3′-naphth-2-ylthiomethyl-4′-aza-5′-oxo-5′-(2″-methyl-3″-hydroxyohenyl)pentyl]-1-naphthylamide]		0.177 µg/mL
CC(C)(C)NC(=O)c1ccccc1C[C@@H](O)[C@@H](CSc1ccc2ccccc2c1)NC(=O)c1cccc(O)c1 (relative stereo) [Example 51, [2′R-(2′R*,3′S*)]-N-t-Butyl-2-[2′-hydroxy-3′-naphth-2-ylthiomethyl-4′-aza-5′-oxo-5′-(3″-hydroxyphenyl)pentyl] benzamide]		0.5 µg/mL
Cc1ccccc1C(=O)N[C@H](CSc1ccc2ccccc2c1)[C@H](O)Cc1ccccc1C(=O)NC(C)(C)C (relative stereo) [Example 52, [2′R-(2′R*,3′S*)]-N-t-Butyl-2-[2′-hydroxy-3′-naphth-2-ylthiomethyl-4′-aza-5′-oxo-5′-(2″-methylphenyl)pentyl] benzamide]		0.281 µg/mL
Cc1c(N)cc(N)cc1C(=O)N[C@H](CSc1ccc2ccccc2c1)[C@H](O)Cc1ccccc1C(=O)NC(C)(C)C (relative stereo) [Example 53, [2′R-(2′R*,3′S*)]-N-t-Butyl-2-[2′-hydroxy-3′-naphth-2-ylthiomethyl-4′-aza-5′-oxo-5′-(2″-methyl-3″,5″-diaminophenyl)pentyl] benzamide]		0.055 µg/mL
CC(C)(C)NC(=O)c1ccccc1C[C@@H](O)[C@@H](CSc1ccc2ccccc2c1)NC(=O)c1cccc(O)c1Cl (relative stereo) [Example 56, [2′R-(2′R*,3′S*)]-N-t-Butyl-2-[2′-hydroxy-3′-naphth-2-ylthiomethyl-4′-aza-5′-oxo-5′-(2″-chloro-3″-hydroxyphenyl)pentyl] benzamide]		0.094 µg/mL
Cc1ccc(O)cc1C(=O)N[C@H](CSc1ccc2ccccc2c1)[C@H](O)Cc1ccccc1C(=O)NC(C)(C)C (relative stereo) [Example 72, [2′R-(2′R*,3′S*)]-N-t-Butyl-2-[2′-hydroxy-3′-naphth-2-ylthiomethyl-4′-aza-5′-oxo-5′-(2″-methyl-5″-hydroxyphenyl)pentyl] benzamide]		0.63 µg/mL

Same assay, conditions: normalized to positive control (=1.0); * = a calculated average; read-out: Fluorescence Assay IC50 in ng/mL (converted)

Structure (SMILES)	IC50
CC(C)(C)NC(=O)c1ccccc1C[C@@H](O)[C@H](CSc1ccc2ccccc2c1)NC(=O)c1cccc2cnccc12 (relative stereo) [Example 57, [2′R-(2′R*,3′S*)]-N-t-Butyl-2-[2′-hydroxy-3′-naphth-2-ylthiomethyl-4′-aza-5′-oxo-5′-(isoquinolin-5″-yl)pentyl] benzamide]	1380 nM
CC(C)(C)NC(=O)c1ccccc1C[C@@H](O)[C@H](CSc1ccc2ccccc2c1)NC(=O)c1cccc2c1CCNC2 (relative stereo) [Example 58, [2′R-(2′R*,3′S*)]-N-t-Butyl-2-[2′-hydroxy-3′-naphth-2-ylthiomethyl-4′-aza-5′-oxo-5′-(1″,2″,3″,4″-tetrahydroisoquinolin-5″-yl)pentyl] benzamide]	309 nM
CC(C)(C)NC(=O)c1ccccc1C[C@@H](O)[C@H](CSc1ccc2ccccc2c1)NC(=O)c1cccc2ncccc12 (relative stereo) [Example 63, [2′R-(2′R*,3′S*)]-N-t-Butyl-2-[2′-hydroxy-3′-naphth-2-ylthiomethyl-4′-aza-5′-oxo-5′-(quinolin-5″-yl)pentyl] benzamide]	433 nM
CC(C)(C)NC(=O)c1ccccc1C[C@@H](O)[C@H](CSc1ccc2ccccc2c1)NC(=O)c1cccc2c1CCCN2 (relative stereo) [Example 64, [2′R-(2′R*,3′S*)]-N-t-Butyl-2-[2′-hydroxy-3′-naphth-2-ylthiomethyl-4′-aza-5′-oxo-5′-(1″,2″,3″,4″-tetrahydroquinolin-5″-yl)pentyl] benzamide]	194 nM

Same assay, conditions: value as run; 35B value of the same run in footnote or parentheses

Structure (SMILES)	Pandex IC50 ng/ml
Cc1c(C(=O)N[C@@H](Cc2ccccc2)[C@H](O)CN2C[C@H]3CCCC[C@H]3C[C@H]2C(=O)NC(C)(C)C)cc[nH]c1=O (relative stereo) [Example 16, [3S-(3R*,4aR*,8aR*,2′S*,3′R*)]-2-[2′-Hydroxy-3′-phenylmethyl-4′-aza-5′-oxo-5′-(2″-oxo-3″-methyl-pyrid-4″-yl)pentyl] decahydroisoquinoline-3-N-t-butylcarboxamide]	125^e ng/ml

Same assay, conditions: value as run; 35B value of the same run in footnote or parentheses; read-out: Pandex IC50 ng/ml (converted)

Structure (SMILES)	IC50
CC(=O)Oc1cccc(C(=O)N[C@@H](Cc2ccccc2)[C@H](O)CN2C[C@H]3CCCC[C@H]3C[C@H]2C(=O)NC(C)(C)C)c1C (relative stereo) [Example 82, [3S-(3R*, 4aR*, 8aR*, 2′S*, 3′R*)]-2-[2′-Hydroxy-3′-phenylmethyl-4′-aza-5′-oxo-5′-(2″-methyl-3″-(acetyl)hydroxyphenyl)pentyl]decahydroisoquinoline-3-N-t-butyl carboxamide]	325 nM
